Assay results taken from US11318167B2, “Isolation of fusion-competent myoblasts and therapeutic applications thereof related to muscular dystrophy” (THE JOHNS HOPKINS UNIVERSITY, priority 2015, dated 2022).

B1: BMP4: BMP4 protein added to the culture media (protein, UniProt P12644 293-408, looked up)
Bone morphogenetic protein 4: SPKHHSQRARKKNKNCRRHSLYVDFSDVGWNDWIVAPPGYQAFYCHGDCPFPLADHLNSTNHAIVQTLVNSVNSSIPKACCVPTELSAISMLYLDEYDKVVLKNYQEMVVEGCGCR

Experiments:
[1] = test system: canonical WNT signaling pathway; experiment: β-catenin translocation into the nucleus (canonical WNT signaling); format: cell-based, human
Source text: The present invention was created through a number of discoveries. First, to harness the potential of hPSCs, a protocol to direct hPSCs into the skeletal muscle lineage was developed. As the somite is an intermediate stage between hPSCs and myogenic progenitor cells (Bentzinger et al, 2012; Dequeant and Pourquie, 2008) (FIG. 6A), a MESOGENIN1::eGFP reporter human embryonic stem cell (hESC) line was generated with the CRISPR/Cas9 system (Mali et al, 2013) (FIG. 6B-6D), because MESOGENIN1 is a genetic marker for the pre-somite mesoderm fate (Fior et al., 2012).

[2] = test system: MESOGENIN1::eGFP reporter human embryonic stem cell (hESC) line; experiment: MESOGENIN1::eGFP reporter hESC line, pre-somite mesoderm induction (day 4); format: cell-based
Source text: The present invention was created through a number of discoveries. First, to harness the potential of hPSCs, a protocol to direct hPSCs into the skeletal muscle lineage was developed. As the somite is an intermediate stage between hPSCs and myogenic progenitor cells (Bentzinger et al, 2012; Dequeant and Pourquie, 2008) (FIG. 6A), a MESOGENIN1::eGFP reporter human embryonic stem cell (hESC) line was generated with the CRISPR/Cas9 system (Mali et al, 2013) (FIG. 6B-6D), because MESOGENIN1 is a genetic marker for the pre-somite mesoderm fate (Fior et al., 2012). […] For myogenic differentiation, hESCs/hiPSCs were rendered to single cells using Accutase® solution, and plated on gelatin for 10 minutes to remove MEFs. Non-adherent cells were collected and plated on Geltrex™ treated dishes, at a density of 1.5×10^5 cells per well of a 24-well plate, in the presence of MEF-conditioned N2 media containing 10 ng/ml of FGF-2 and 10 μM of Y-27632 (Cayman Chemical Co.) (day 0). The N2 medium, described in detail, contains DMEM/F12 powder, glucose, sodium bicarbonate, insulin, putrescine, progesterone, sodium selenite, and transferrin. From the next day (day 1), media was changed at every other day. BIO (30 nM-250 nM), lithium chloride (20 μM-20 mM), Kenpallone (1 μM-10 μM), SB 216763 (1 μM-10 μM), WNT-1 (10 ng/ml-100 ng/ml), WNT-3A (10 ng/ml-100 ng/ml), WNT-7A (10 ng/ml-100 ng/ml), SBE13 hydrochloride (0.1 nM-10 μM), and OTSSP167 hydrochloride (0.1 nM-10 nM) were tested during day 1 to day 4, as well as during day 4 to day 8. Final concentrations of CHIR99021 and DAPT treatment are 3 μM and 10 μM, respectively.

[3] = test system: control hiPSC-derived myoblasts; experiment: Effect of DMD-myoblast conditioned media / BMP4 on control hiPSC-derived myoblasts; format: cell-based, human; details: BMP4 four concentrations, 7.5 μg/ml to 25 μg/ml; compared with inhibitive effect of DMD-myoblast CM
Experimental: FIG. 10A-10D is related to FIG. 5 and illustrates the effect of BMP4 on myoblasts and its pharmacological rescue. (A) Increased level of BMP4 expression in DMD-myoblasts than control myoblasts. (B-C) Inhibitive effect of conditioned media (CM, harvested after 24 hr incubation) from DMD-myoblasts on fusion index (B), and MYOG, and MYOD1 expression (C) of control hiPSC-derived myoblasts. […] (D) The decreased fusion index in DMD-CM-treated myoblasts was rescued by ‘dual SMAD inhibition’ compounds. (*, P≤0.05; ***, P≤0.001; ****, P≤0.0001, One-way ANOVA followed by Newman-Keuls test). n=3-5. All values represent means and s.d.
To find pharmacological rescue of the in vitro phenotypes, aberrant BMP and TGFβ signaling indicated by increased nuclear localization of pSMAD proteins in DMD-myoblasts (FIG. 3C-3D) was studied. Increased levels of BMP4 in the conditioned media (CM) of DMD-myoblasts (FIG. 10A) was detected. […] The effect of CM of DMD-myoblasts was reproduced by treatment with BMP4 protein in the culture media, which was reversed by treatment with ‘dual-SMAD’ inhibition compounds (FIG. 10D) (LDN+SB: LDN193189 and SB431542).

Molecule	β-catenin translocation into the nucleus [1]	expression of MESOGENIN1::eGFP (cells out of total cells in a dish) ([2]; brief treatment 4 days after day 0, read at day 4, final concentration 3 μM) [%]	expression of TBX6 (positive cells) ([2]; brief treatment 4 days, read at day 4) [%]	expression of PAX3 ([2]; brief treatment 4 days, read at day 4, dose-dependent manner)	MYOG and MYOD1 expression of control hiPSC-derived myoblasts [3]	fusion index of control hiPSC-derived myoblasts [3]
Cc1c[nH]c(-c2cnc(NCCNc3ccc(C#N)cn3)nc2-c2ccc(Cl)cc2Cl)n1.Cl [CHIR99021]	β-catenin translocation into the nucleus	80.8±11.3	67.4±10.4	significantly increased expression		
B1					recapitulated the effect of CM of DMD-myoblasts	recapitulated the effect of CM of DMD-myoblasts
